“Also recorded” adds a separate entry of the source.
Columns and labels:
[1] = tested on: BWF1 mice with high proteinuria (PU^hi); assay: Therapeutic treatment of BWF1 mice after clinical nephritis / high proteinuria (PU^hi); type: in vivo, mouse; conditions: for Animals with proteinuria reduced to levels below 300 mg/dL: after 8 weeks of treatment; for FSGS and IF/TA histology scores: compared to controls; for Survival: treated after clinical nephritis / PU^hi, LAQ 25 mg/kg 3 times a week, MMF 100 mg/kg 5 times a week
Protocol: Therapeutic Groups: a low proteinuria group)(PU^lo) consisted of mice with IgG anti-dsDNA detectable in serum and proteinuria ≦100 mg/dL, and a high proteinuria group (PU^hi) had proteinuria ≧300 mg/dL.
Proteinuria was evaluated weekly using Albustix (Siemens), serum creatinine using a commercial kit (Arbor Assays) and anti-dsDNA IgG antibodies by ELISA as described previously (10). See, e.g., FIGS. 1 and 2.
Kidney specimens of BWF1 mice (37 weeks of age in the prevention group or 7 and 11 weeks after institution of early or late therapies) were embedded in OCT compound and snap frozen. 4-5 μm an sections were air-dried, fixed with cold acetone and incubated with blocking buffer (anti-CD16/CD32 (1/50), 2% normal goat or rat serum, 2% BSA).
Histological analysis of glomerular pathology was done by an investigator blinded to treatment group and included acute inflammatory features (endocapillary hypercellularity, mesangial hypercellularity, cellular necrosis, cellular crescents, and interstitial inflammation), and chronic features (global glomerulosclerosis (GS), focal segmental glomerulosclerosis (FSGS), and interstitial fibrosis or tubular atrophy (IF/TA)). […] The weighted total score of the clinical features was based on this formula: [endocapillary hypercellularity+mesengial hypercellularity+(cellular necrosis*2)+(cellular crescents*2)+interstitial inflammation)/5]+(GS+FSGS+IFTA)/3, with maximum score 5.2. A minimum of 25 glomeruli, of at least 10 mice per group, were scored. Scores from each individual mouse were added and averaged to yield the glomerulonephritis score.

spleen cell subsets = assay: Spleen cell subsets of treated BWF1 mice by flow cytometry; type: in vivo, mouse; conditions: for Percentage of CD8^+ cells in spleen: compared to the control mice; for Frequency of cells ± SEM: CD11b^+Ly6C^hiGr-1^− (MΦ^2) / Frequency of cells ± SEM: CD11b^+Ly6C^intGr-1^+ (Gr-1) / Frequency of cells ± SEM: CD 19^+ / Frequency of cells ± SEM: CD19^+CD23^−CD21^+IgM^hi (MZ): spleen at age 32 weeks, oral gavage from age 11 weeks, LAQ 25 mg/kg 3 days per week, MMF 100 mg/kg 5 days/week; for Frequency of cells ± SEM: CD 19^+ / Frequency of cells ± SEM: CD19^+CD23^−CD21^+IgM^hi (MZ): in % (unit assumed); for Percentage of CD4^+ T cells in spleen: vs control mice
From the text: Water-gavaged mice constituted the control untreated animals. The spleen cell subsets were identified by the expression of cell surface markers at age 32 weeks as follow: iTregs; nTregs; MΦ: CD11b^−CD103^−; MΦ^2: CD11b^+Ly6C^hiGr-1^−; MΦ^3: CD11b^+Ly6C^intGr-1^−; Gr-1: CD11b ly6C^intGr-1^+; DC: CD11c^+CD103^+; T2: CD19^+CD23^+CD21^+IgM^hi; MZ: CD19^+CD23^−CD21^+IgM^hi. Abbreviations: iTregs=induced T regulatory cells (Tregs). nTregs=natural Tregs. T2=transitional 2 B cells. MZ=marginal zone B cells. MΦ=macrophages. Gr1=granulocytes. Values are mean±SEM. The statistical significance between the groups was determined by analysis of variance (-A-NOVA). ^AP<0.05 versus untreated controls.
(§1) Single cell suspensions of splenocytes or kidney cells were prepared using cell strainers (Fisher), followed by red blood cell lysis. Kidney lymphocytes were separated from connective tissue by centrifugation (15 minutes at 400g) in 30% Percoll (GE Healthcare). CD4^+CD25^− cells from spleen and kidney were isolated using the CD4^+CD25^+ regulatory T cell isolation kit according to manufacturer's protocol (Miltenyi). CD11b+ cells were isolated using EasySep mouse CD11b positive selection kit (StemCell Technologies), surface stained for Ly6C and Ly6G prior to sorting myeloid-derived suppressor cells (MDSC) using FACSAria II. Populations were >95% pure by FACS analysis.
(§2) Single-cell suspensions from spleen or kidneys were stained for extracellular markers for 20 min at 4° C. in PBS/1% FBS. Intracellular staining for Foxp3 and cytokines was performed using the Foxp3 Fixation/Permeabilization kit according to the manufacturer's protocol (eBioscience). Cells were acquired on a FACS LSR II (BD) and data was analyzed using Flowjo (Tree Star).

[2] = tested on: leukocyte subsets present in kidney; assay: Leukocyte subsets in kidney of treated BWF1 mice by flow cytometry; type: in vivo, mouse; parameters: Frequency of cells ± SEM: CD11c^+CD11b− (DC) / Frequency of cells ± SEM: CD11b^+Ly6C^+Ly6G− / Frequency of cells ± SEM: CD11b^+Ly6C^+Ly6G+ / Frequency of cells ± SEM: CD4+ / Frequency of cells ± SEM: CD8+ / Frequency of cells ± SEM: CD11b^+MDSC−(Mφ) / Frequency of cells ± SEM: CD11c^+CD11b+(DC): unit not given here; conditions: for Frequency of cells ± SEM: CD4+ / Frequency of cells ± SEM: CD8+ / Frequency of cells ± SEM: CD11b^+Ly6C^+Ly6G+ / Frequency of cells ± SEM: CD11b^+Ly6C^+Ly6G− / Frequency of cells ± SEM: CD11b^+MDSC−(Mφ) / Frequency of cells ± SEM: CD11c^+CD11b+(DC) / Frequency of cells ± SEM: CD11c^+CD11b− (DC) / Frequency of cells ± SEM: CD19+: kidney, LAQ 25 mg/kg, MMF 100 mg/kg
Protocol: as §1, §2

[3] = tested on: monocyte/macrophages (CD11b^+Ly6C^−Ly6G^−) and CD4^+ T cells; assay: Intracellular cytokines in splenocytes of treated mice after TLR agonist or PMA plus ionomycin stimulation; type: cell-based, mouse; conditions: vs vehicle
Protocol: For intracellular cytokines, whole splenocytes were stimulated with a) LPS (1 μg/mL) (Sigma), imiquimod, a toll like receptor 7 (TLR7) agonist, or ODN, a TLR9 agonist (both at 10 μg/mL) in 2% FBS RPMI 1640 for 24 hours in the presence of monensin (BioLegend) for the last 12 hours; or b) phorbol 12-myristate 13-acetate (PMA, 50 ng/ml) plus ionomycin (500 ng/ml) in the presence of monensin for 5 hours. Monensin was used to prevent cytokine secretion and optimize intracellular staining Intracellular expression of cytokines in CD4^+ cells and macrophages (CD11b^+Ly6C^−Ly6G^−) was analyzed by intracellular flow cytometry. Single-cell suspensions from spleen or kidneys were stained for extracellular markers for 20 min at 4° C. in PBS/1% FBS. Intracellular staining for Foxp3 and cytokines was performed using the Foxp3 Fixation/Permeabilization kit according to the manufacturer's protocol (eBioscience). Cells were acquired on a FACS LSR II (BD) and data was analyzed using Flowjo (Tree Star).

[4] = PU^hi arm, LAQ 25 mg/kg, MMF 100 mg/kg
[5] = Preventive, 25 weeks after treatment
[6] = Therapeutic (PU^lo), 10 wks after initiation of therapy

SMILES | Animals with proteinuria reduced to levels below 300 mg/dL [1, 4] | FSGS and IF/TA histology scores ([1]; PU^hi arm) | Survival ([1]; vs water) | Percentage of CD8^+ cells in spleen (spleen cell subsets) | Frequency of cells ± SEM: CD11b^+Ly6C^hiGr-1^− (MΦ^2) (spleen cell subsets) | Frequency of cells ± SEM: CD11b^+Ly6C^intGr-1^+ (Gr-1) (spleen cell subsets) | Frequency of cells ± SEM: CD 19^+ (spleen cell subsets) | Frequency of cells ± SEM: CD19^+CD23^−CD21^+IgM^hi (MZ) (spleen cell subsets) | Percentage of CD4^+ T cells in spleen (spleen cell subsets) | Frequency of cells ± SEM: CD4+ [2, 5] | Frequency of cells ± SEM: CD8+ [2, 5] | Frequency of cells ± SEM: CD11b^+Ly6C^+Ly6G+ [2, 5] | Frequency of cells ± SEM: CD11b^+Ly6C^+Ly6G− [2, 5] | Frequency of cells ± SEM: CD11b^+MDSC−(Mφ) [2, 5] | Frequency of cells ± SEM: CD11c^+CD11b+(DC) [2, 5] | Frequency of cells ± SEM: CD11c^+CD11b− (DC) [2, 5] | Frequency of cells ± SEM: CD4+ [2, 6] | Frequency of cells ± SEM: CD8+ [2, 6] | Frequency of cells ± SEM: CD11b^+Ly6C^+Ly6G+ [2, 6] | Frequency of cells ± SEM: CD11b^+Ly6C^+Ly6G− [2, 6] | further results
CCN(C(=O)c1c(O)c2c(Cl)cccc2n(C)c1=O)c1ccccc1 [LAQ, 5-chloro-N-ethyl-4-hydroxy-1-methyl-2-oxo-N-phenyl-1,2-dihydroquinoline-3-carboxamide] | 50% | significantly lower | better; also recorded: significantly increased survival; also recorded: survived | did not; also recorded: not significantly altered | 12.15 ± 2.11 | 41.50 ± 3.08^A | 68.02 ± 3.83 | 11.85 ± 2.15 | did not | 7.0 ± 0.5 | 4.2 ± 0.2 | 7.9 ± 1.9 | 44.4 ± 1.5 | 31.0 ± 1.8 | 0.7 ± 0.1 | 3.8 ± 0.2 | 2.8 ± 0.3 | 2.7 ± 0.2 | 13.6 ± 1.2 | 41.2 ± 0.4 | Rise in serum creatinine [1, 4]: suppresses; Endo-capillary hypercellularity in the kidney ([1]; PU^hi arm, versus both control and MMF-treated mice): significantly lower; Established proteinuria ([1]; mice that already developed proteinuria, vs water): significant reduction of proteinuria; also recorded: suppresses proteinuria; Survival ([1]; vs water, listed as laquinimod): better; Mice with proteinuria present after 3 wks. of treatment ([1]; treated after clinical nephritis appeared (≧3+ proteinuria), water 100%, p<0.001): 25%; Histologic evidence of inflammation in the kidneys ([1]; treatment starting after proteinuria developed, vs water): significantly less histologic evidence of inflammation; Frequency of cells ± SEM: CD19+ [2, 5]: 4.0 ± 0.5; Frequency of cells ± SEM: CD11b^+MDSC−(Mφ) [2, 6]: 28.4 ± 0.9; Frequency of cells ± SEM: CD11c^+CD11b+(DC) [2, 6]: 0.7 ± 0.1; Frequency of cells ± SEM: CD11c^+CD11b− (DC) [2, 6]: 1.2 ± 0.1; Frequency of cells ± SEM: CD19+ [2, 6]: 2.7 ± 0.2; Number of MM in the kidneys ([2]; mouse, in vivo): suppresses numbers of monocytes/macrophages; Phenotype of MM isolated from kidneys ([2]; mouse, in vivo): promoting change from M1 to M2 phenotypes; Number of MM in the kidneys ([2]; mouse, in vivo, listed as laquinimod): significantly reduced; IL-10^+ M/M ([3]; splenic M/M after TLR agonist stimulation, PU^lo animals, 7 weeks of treatment): Significantly more; M/M producing TNF-α ([3]; splenic M/M after TLR agonist stimulation, listed as laquinimod): unable to respond; also recorded: significantly fewer; CD4^+ T cells producing IFN-γ ([3]; splenocytes, PMA plus ionomycin): significantly fewer
COc1c(C)c2c(c(O)c1C/C=C(\C)CCC(=O)OCCN1CCOCC1)C(=O)OC2 [MMF, mycophenolate mofetil, reference compound] | approximately 25% | significantly lower | not observed | decreased; also recorded: reduced | 11.81 ± 1.58 | 25.01 ± 5.32 | 57.38 ± 3.89 | 3.78 ± 0.99 | decreased; also recorded: significantly lower percentage | 19.4 ± 0.4 | 8.8 ± 0.1 | 1.6 ± 0.2 | 22.9 ± 0.8 | 49.8 ± 0.7 | 1.0 ± 0.1 | 4.4 ± 0.3 | 1.0 ± 0.1 | 6.6 ± 0.2 | 1.9 ± 0.3 | 22.4 ± 0.3 | Frequency of cells ± SEM: CD19+ ([2]; Preventive, 25 weeks after treatment, in % (unit assumed)): 2.3 ± 0.2; Frequency of cells ± SEM: CD11b^+MDSC−(Mφ) [2, 6]: 45.7 ± 0.9; Frequency of cells ± SEM: CD11c^+CD11b+(DC) [2, 6]: 0.6 ± 0.0; Frequency of cells ± SEM: CD11c^+CD11b− (DC) [2, 6]: 1.3 ± 0.1; Frequency of cells ± SEM: CD19+ ([2]; Therapeutic (PU^lo), 10 wks after initiation of therapy, in % (unit assumed)): 7.2 ± 0.4

Source: patent US20130345257A1, “COMPOSITION FOR LUPUS NEPHRITIS AND METHODS OF MAKING AND USING THE SAME” (The Regents of the University of California, priority 2012, published 2013)
